Patent publication US20110166066A1, “CATESTATIN (CST) AND ITS VARIANTS FOR TREATMENT OF CARDIOVASCULAR AND METABOLIC DISORDERS” (priority 2008, published 2011)
No end group written: not given here.

Columns and labels:
[1] = system: GSK-3β Ser9; assay: Immunoblot of phosphorylated GSK-3β in WT-CST perfused hearts; parameters: species or system rat; settings: 110 nM
Description: (§1) Cardiac signaling—Hearts were perfused with or without 110 nM WT-Cts as before. At the end of experiment hearts were snap frozen under liquid nitrogen and homogenized with 1 ml of ice cold 0.2 M sucrose, Tris maleate (pH 7.0) buffer supplemented with 2 mM EDTA, pH 8.0, 1 mM sodium orthovanadate, 10 mM sodium pyrophosphate, 1 mM phenylmethylsulfonyl fluoride, 10 μg/ml leupeptin, 10 μg/ml aprotinin and 0.1 mM 3-isobutyl-1-methylxanthine. SR membrane fractions were isolated from cytosolic proteins as described before (27). Protein content was determined by Bradford assay (BIO-RAD) and 100 μg of cytosolic protein was subjected to SDS-PAGE immunoblot analysis for phosphorylated-ERK, total ERK (P-ERK and T-ERK; Santa Cruz, Calif.). […]
(§2) Statistics—Data are expressed as the mean±SEM. Curve fitting was accomplished in the program Kaleidagraph (Synergy Software, Reading, Pa.). […] For analysis of phosphorylated proteins, levels were quantified using Bio-Rad QuantifyOne and volumes of phosphorylated proteins were divided by the levels of non-phosphorylated proteins to calculate fold activation. Stimulation of protein activity was expressed as fold increase over vehicle-treated control. The means and S.E.M. were calculated for each treatment. […]

[2] = system: AKT Ser473; assay: Immunoblot of phosphorylated Akt in WT-CST perfused hearts; parameters: species or system rat; settings: 110 nM
Description: as §1, §2

[3] = system: WT and Chga knockout (KO) mice; assay: Response to PE or SNP and baroreflex sensitivity in unconscious mice; type: in vivo; settings: KO mice, CST 40 μg/g bw iv
Description: Unconscious mice. Surgical procedures for hemodynamic measurements: Hemodynamic evaluation in both WT and KO mice was performed under general anesthesia [ketamine (100 mg/kg) and xylazine (2.5 mg/kg)] while connected to a ventilator. LV pressure was monitored by Millar micromanometer catheter of size 1.4 French (0.46 mm; Millar Instruments, Houston, Tex.); it was inserted into the LV where phasic and mean pressure was continuously monitored (Gould, Cleveland, Ohio). A venous catheter (MicroRenathane tube MRE-033; Braintree Laboratories, Braintree, Mass.) is implanted on right femoral vein for injection of peptide and other reagents. All physiologic signals were acquired by WINDAQ (Dataq Instruments, Akron, Ohio) and analyzed by BP-Analysis software (developed for own laboratory).
Assessment of baroreflex sensitivity (BRS): BRS (in milliseconds per mmHg) was assessed by both high-pressure [phenylephrine (PE) bolus] and low-pressure [sodium nitroprusside (SNP) bolus] stimuli in unconscious mice. Although conscious animals provide optimal physiological data, a host of undesirable signals are triggered by physical activities, and sleep cycle alterations in behavioral state. Therefore, we have chosen to conduct the experiments in unconscious mice to avoid some of the pitfalls encountered in awake animals. The absolute changes of HR in response to changes in SBP induced by PE or SNP were subjected to linear regression analysis to determine BRS. To test the effect of CST on BRS in KO mice, CST was injected (40 μg/g bw iv) 30 min before the injection of PE or SNP through the catheter implanted into the femoral vein.
BRS to high-pressure stimulus. High pressure BRS was evaluated by recording diminution of HR in response to PE-induced hypertension. Changes in SBP and HR were recorded continuously for 0.5 min after a bolus injection of PE (0.005 μg/g bw iv). This dose was selected from a preliminary dose-response study (0.001-0.05 μg/g bw iv).
BRS to low-pressure stimulus. This was evaluated by recording increments in HR in response to SNP-induced fall in BP. Changes in SBP and HR were recorded continuously for 0.5 min after a bolus injection of SNP (0.05 μg/g bw iv). This dose was selected from a preliminary dose-response study (0.01-0.1 μg/g bw iv).

[4] = system: C57BL/6 wild-type mice; assay: Mouse hind-limb ischemia model; type: in vivo; settings: for Blood perfusion (LDPI), in words: 3 and 4 weeks after operation
Description: Mouse hind-limb ischemia model. Male C57BL/6 wild-type mice at the age of 12 months were subjected to unilateral hind-limb surgery. Briefly, the left femoral artery was exposed, ligated with 5-0 silk ligatures, and excised. Mice were injected with saline or 10 μg catestatin into thigh and calf muscles after operation and every other day for weeks 1 and 2 and 2 times per week for weeks 3 and 4. All further measurements and analyses were performed by investigators blinded to the treatment of the animals.
Blood flow measurement. Blood flow measurements were performed using a laser Doppler perfusion image (LDPI) analyzer (Moor Instruments, USA) as described. To minimize data variables attributable to ambient light and temperature animals were kept on a heating plate at 37° C. before measurement and blood perfusion is expressed as the LDPI index representing the ratio of left (=operated, ischemic leg) versus right (=not-operated, not-ischemic leg) limb blood flow. A ratio of 1 before operation indicates equal blood perfusion of both legs, whereas after femoral artery excision this ratio drops to 0.26, indicating severe attenuation of leg blood supply in the operated leg.
Alkaline phosphatase staining and Immunohistochemistry. For tissue staining, mice were sacrificed and ischemic limb tissues were retrieved after 4 weeks. Specimens were fixed in 10% (v/v) buffered formaldehyde, dehydrated with graded ethanol series and embedded in paraffin. Alternatively, fresh tissue was embedded in OCT compound (TISSUE-TEK®, Sakura Finetek) and snap-frozen in liquid nitrogen. Tissues were sliced into 5-μm sections. Vascular endothelial cells were identified by alkaline phosphatase staining and for assessment of artery/arteriole density sections were stained with a mouse monoclonal alpha-smooth muscle actin antibody (Pharmingen) as described (36). Adductor muscle samples of each leg were divided into 2 parts and capillaries (alkaline phosphatase positive) and arteries (alpha-smooth muscle actin positive) were counted in five sections of each part and are expressed as capillary and arteriole density per mm^2.

[5] = system: ERK1/2; assay: Immunoblot of phosphorylated ERK1/2 in WT-CST perfused hearts; parameters: species or system rat; settings: 110 nM
Description: as §1, §2

Sequence: SSMKLSFRARAYGFRGPGPQL [WT-CST, catestatin]
- Phosphorylation of GSK-3β at Ser9 [1]: inhibited
- Phosphorylation of AKT at Ser473 [2]: inhibited
- Dampened baroreflex slope [3]: restored
- Blood perfusion (LDPI), in words ([4]; listed as CST): improved perfusion
- Blood perfusion (LDPI), in words ([4]; listed as catestatin): improved blood perfusion
- Capillary density, in words ([4]; 4 weeks): significantly increased capillary density
- Density of arteries/arterioles, in words ([4]; 4 weeks): increases density of arteries/arterioles
- Alpha-smooth muscle actin positive vessels ([4]; 4 weeks after surgery): 7.5±0.5 vessels/mm^2
- Capillaries (alkaline phosphatase positive vessels) ([4]; 4 weeks after surgery): 356±17 capillaries/mm^2
- LDPI ratio ([4]; 4 wks after induction of ischemia, 10 μg i.m.): 0.94±0.03
- Perfusion ratios versus saline ([4]; after 3 weeks): significantly better
- Phosphorylation of ERK1/2 [5]: inhibited
